The values that follow come from patent US20260021061A1, “ARIADNE AND ANALOGS FOR THE TREATMENT OF NEUROLOGICAL AND NEUROMUSCLAR DISORDERS” (priority 2022, published 2026).

For orientation: Ki means a dissociation constant, usually derived from enzyme kinetics or from competition with a known ligand.

Structures can show the parent of a compound that is named as a salt. Where two headings read alike, the source gives them in different places.

Test [1] has as its system C57BL/6J mice. The experiment in a line: Head twitch response (HTR) in mice. It counts as in vivo, mouse. The following applies: s.c. How it is done:
All samples were prepared the same day testing was performed. Solids were weighed into small vials and dissolved in USP grade 0.85% saline with addition of 2 molar equivalents of glacial acetic acid. Sonication and gentle heating were applied until complete dissolution. The compounds were subsequently filtered through 0.45 μm filters into a new glass vial. All compounds were administered at a 1 mg/kg subcutaneous dose at a volume of 10 mL/kg of body weight. Volinanserin hydrochloride salt (MDL 100907) was purchased from Toronto Research Chemicals.
All experimental procedures involving animals were approved by an Institutional Animal Care and Use Committee (IACUC) and adhered to principles described in the National Institutes of Health Guide for the Care and Use of Laboratory Animals. The studies were conducted at AAALAC accredited facilities. Animals received regular veterinary care (weekly by institutional veterinarians) including daily health monitoring (by experimenters) of the animals (observing home cage behaviors, nesting, and body weight). All procedures were designed to minimize any stress/distress. Healthy adult male mice C57BL/6J (8-12 weeks, 26-33 g) were purchased from the Jackson Laboratory (Bar Harbor, ME) and housed 5 mice per cage with food and water available ad libitum. Mice were maintained on a 12-h light/dark cycle (lights on 7:00-19:00) and all testing was done in the light cycle. Temperature was kept constant at 22±2° C., and relative humidity was maintained at 50±5%
The head-twitch response evaluation was performed by a trained observer who was blinded to both drug and dose. Mice were moved to the testing room 30 min before the experiment to allow for acclimation. The body weight of each mouse was recorded. Mice were administered either a 1, 3, 10, or 30 mg/kg s.c. dose of compound solution (volume of injection 260-330 μL based on body weight). […] The total number of head-twitches over the 15 minute period were recorded. Five mice were used per dose.
DOI was tested at the doses of 0.3, 1, 3, and 10 mg/kg (s.c., 5 mice per dose) and testing began immediately after administration of the compound. Ariadne was tested at the doses of 1, 3, 10, and 30 mg/kg (s.c., 5 mice per dose) and there was a 10 min interval between treatment and testing.

Test [2] relates to C57BL/6J mice. The experiment in a line: Open field locomotion in mice. It counts as in vivo, mouse.
The target in test [3] is T1, 5-HT2A (Homo sapiens, UniProt P28223). The experiment in a line: Radioligand displacement assay. It counts as binding.
Description: Therefore, an orthogonal assay measuring calcium flux was also performed for the 5-HT2 receptors (Klein et al., 2020).
Test [4] addresses T1, 5-HT2A. The experiment in a line: IP1 agonism (IP1 formation assay), Cerep, Eurofins. In kind it is cell-based. Details: purchased Cerep, Eurofins (contract assay). The conditions noted are these: duplicate averages only. An excerpt:
(§1) FIGS. 8A-B Comparison of 5-HT2A (a) and 5-HT2B (b) receptor in IP1 formation assay for selected compounds, performed at Cerep, Eurofins.
(§2) IP1 agonism summary for selected compounds (duplicate averages only), performed at Cerep, Eurofins.

Test [5] has as its target T2, 5-HT2B (Homo sapiens, UniProt P41595). The experiment in a line: IP1 agonism (IP1 formation assay), Cerep, Eurofins. It counts as cell-based. Set-up: purchased Cerep, Eurofins (contract assay). The conditions noted are these: duplicate averages only.
Source text: as §1, §2

For test [6], the target named is T1, 5-HT2A. The experiment in a line: G protein (Gq) dissociation BRET assay. It counts as cell-based. Set-up: host or cells: HEK293T (ATCC CRL-11268). A general note: Bioluminescence resonance energy transfer reports proximity on the nanometre scale.
Test [7] addresses T2, 5-HT2B. The experiment in a line: G protein (Gq) dissociation BRET assay.
Description: (§3) All BRET assays were conducted using BRET2 in HEK293T cells (ATCC CRL-11268; mycoplasma-free), which were subcultured in high-glucose DMEM (VWR) supplemented with 10% FBS (Life Technologies).
(§4) Constructs in G protein-dissociation BRET assays were derived from the codon-optimized Tango pcDNA3.1 library (Addgene) with V2tail/TEV/tTA encoding regions deleted to yield “de-Tango” constructs. […] All Gα-Rluc8, Beta, and GFP2-γ constructs were derived from the TRUPATH pcDNA5/FRT/TO library (Addgene).
(§5) Approximately 48 hours before assays, cells were transfected using a reverse transfection method and plated in 1% dFBS at an approximate density of 15,000 cells per well into poly-L-lysine-coated 384-well white assay plates (Grenier Bio-One). For G protein-dissociation assays, cells were transfected in a 1:1:1:1 ratio of receptor: Gα-Rluc8: Beta: GFP2-γ constructs. […] All transfections were prepared in Opti-MEM (Invitrogen) and used a 3:1 ratio of TransIT-2020 (Mirus) uL:ug total DNA.
(§6) On the day of the assay, plates were decanted and 20 uL of drug buffer per well (1×HBSS, 20 mM HEPES, pH 7.4) was added using a Multidrop (ThermoFisher Scientific), and plates were allowed to equilibrate at 37° C. in a humidified incubator before receiving drug stimulation. Drug dilutions of all compounds were performed in McCorvy buffer (1×HBSS, 20 mM HEPES, pH 7.4, supplemented with 0.3% BSA fatty acid free (GoldBio), and 0.03% ascorbic acid). […] Next, plates were incubated at 37° C. in a humidified incubator for 60 minutes or specified time point. Before reading, addition of coelenterazine 400a (5 uM final concentration; Nanolight Technology) was performed by the [sequence]. Immediately after, plates were read at 400 nm Rluc and fluorescent GFP2 emission at 510 nm for BRET2 at 0.8 second per well using a PheraStarFSX (BMB Lab Tech).
(§7) The BRET ratios of 510/400 luminescence were calculated per well and were plotted as a function of drug concentration using Graphpad Prism 5 or 9 (Graphpad Software Inc., San Diego, CA). Data were normalized to % positive control stimulation and analyzed using nonlinear regression “log(agonist) vs. response” to yield Emax and EC50 parameter estimates.
Another test concerns the target T3, 5-HT2C receptor (Homo sapiens, UniProt P28335).
T3 sequence (P28335 33-458): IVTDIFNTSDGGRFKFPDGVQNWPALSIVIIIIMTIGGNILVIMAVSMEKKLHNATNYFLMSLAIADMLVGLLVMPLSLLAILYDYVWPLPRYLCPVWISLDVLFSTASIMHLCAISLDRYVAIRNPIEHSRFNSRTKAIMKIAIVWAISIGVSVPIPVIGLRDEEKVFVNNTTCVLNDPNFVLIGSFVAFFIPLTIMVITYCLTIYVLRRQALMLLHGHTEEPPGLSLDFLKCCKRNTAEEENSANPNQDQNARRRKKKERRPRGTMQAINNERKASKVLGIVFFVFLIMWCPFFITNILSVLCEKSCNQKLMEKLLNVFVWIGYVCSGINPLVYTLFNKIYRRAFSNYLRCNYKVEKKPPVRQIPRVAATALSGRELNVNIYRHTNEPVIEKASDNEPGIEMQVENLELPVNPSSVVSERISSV
The experiment in a line: G protein (Gq) dissociation BRET assay. The conditions noted are these: read-out: Emax/Gq.

The next test relates to humans. The conditions noted are these: per oral administration; cited from earlier work.
[8] abbreviates: EC50 (5-HT2A) (M), Table 7, IP1 agonism.
The mark [9] stands for this setting: EC50 (5-HT2B) (M), Table 7, IP1 agonism.

T1 sequence (P28223 whole entry): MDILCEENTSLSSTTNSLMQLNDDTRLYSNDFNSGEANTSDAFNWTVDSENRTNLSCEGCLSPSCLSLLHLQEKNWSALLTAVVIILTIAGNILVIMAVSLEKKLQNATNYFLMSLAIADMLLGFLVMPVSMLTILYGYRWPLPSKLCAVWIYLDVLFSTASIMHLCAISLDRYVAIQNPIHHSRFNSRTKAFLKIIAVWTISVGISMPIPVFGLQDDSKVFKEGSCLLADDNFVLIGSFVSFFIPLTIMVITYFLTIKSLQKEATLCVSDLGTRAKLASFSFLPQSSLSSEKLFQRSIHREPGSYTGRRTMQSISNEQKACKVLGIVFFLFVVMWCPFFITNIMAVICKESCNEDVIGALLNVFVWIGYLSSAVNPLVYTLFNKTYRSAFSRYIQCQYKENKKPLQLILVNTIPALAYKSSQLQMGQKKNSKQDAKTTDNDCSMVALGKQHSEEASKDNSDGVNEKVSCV
T2 sequence (P41595 whole entry): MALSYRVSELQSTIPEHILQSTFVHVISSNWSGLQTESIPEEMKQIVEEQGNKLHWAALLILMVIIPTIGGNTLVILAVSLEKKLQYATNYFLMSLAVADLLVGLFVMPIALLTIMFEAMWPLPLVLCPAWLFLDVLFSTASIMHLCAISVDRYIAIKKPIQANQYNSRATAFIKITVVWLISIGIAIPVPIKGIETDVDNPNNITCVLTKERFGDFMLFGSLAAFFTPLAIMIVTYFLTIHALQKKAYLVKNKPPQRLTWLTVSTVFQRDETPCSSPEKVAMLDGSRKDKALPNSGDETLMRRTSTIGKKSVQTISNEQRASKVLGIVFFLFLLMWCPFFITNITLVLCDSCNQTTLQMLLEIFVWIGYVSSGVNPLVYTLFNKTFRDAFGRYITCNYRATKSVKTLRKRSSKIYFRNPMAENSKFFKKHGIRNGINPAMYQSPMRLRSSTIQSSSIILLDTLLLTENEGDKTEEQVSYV
Description for 5-HT2C receptor: as §3, §4, §5, §6, §7

As for `CCCc1cc(OC)c(CC(C)N)cc1OC` (racemic) [Compound 44, 1-(2,5-dimethoxy-4-propylphenyl) propan-2-amine, reference compound], in the test with C57BL/6J mice [1], the HTR response result is on record as “robust dose-dependent HTR response”, the “dose of maximum (peak) HTR” value is 1 mg/kg and the “time to maximum HTR frequency post-drug administration” value was determined as 10 min. Moreover, in the test with C57BL/6J mice [2] (open field), the “time in the center of the arena” value was “trend for spending less time in the center”. Further, in the test on C57BL/6J mice [2] (s.c., trending toward increased locomotion at HTR peak dose (1 mg/kg)), the effects on locomotion entry was “minor to no effects on locomotion”.

As for `CC[C@H](N)Cc1cc(OC)c(C)cc1OC` [(S)-Ariadne], the inhibition constant Ki at 5-HT2A [3] turned out to be 220 nM.

Turning to `CCC(N)Cc1cc(OC)c(C#N)cc1OC` (centres unmarked) [Compound 4, 4-(2-aminobutyl)-2,5-dimethoxybenzonitrile trifluoroacetate], the EC50 at 5-HT2A [4] (5-HT2a (IP1 agonism), Table 2) turned out to be 1.1e-05 M.

Take `CCSc1cc(OC)c(CC(N)CC)cc1OC` (centres unmarked) [Compound 27, 1-(4-(ethylthio)-2,5-dimethoxyphenyl)butan-2-amine]: the EC50 on 5-HT2A [4] (5-HT2a (IP1 agonism), Table 2) amounted to 5.3e-08 M; at 5-HT2B [5] (5-HT2b (IP1 agonism), Table 2), 6.3e-07 M.

Take `CCC(N)Cc1cc(OC)c(SC)cc1OC` (centres unmarked) [Compound 28, 1-(2,5-dimethoxy-4-(methylthio)phenyl)butan-2-amine]: the EC50 at 5-HT2A [4] (5-HT2a (IP1 agonism), Table 2) turned out to be 1.6e-07 M; on 5-HT2B [5] (5-HT2b (IP1 agonism), Table 2), 6.6e-08 M.

In the case of `CCC(N)Cc1cc(OC)c(C2CC2)cc1OC` (centres unmarked) [Compound 30, 1-(4-cyclopropyl-2,5-dimethoxyphenyl)butan-2-amine], the EC50 at 5-HT2A [4] (5-HT2a (IP1 agonism), Table 2) stood at 3.7e-06 M.

For the compound `CCC(N)Cc1cc(OC)c(Br)cc1OC` (centres unmarked) [Compound 31, 1-(4-bromo-2,5-dimethoxyphenyl)butan-2-amine], the EC50 at 5-HT2A [4] (5-HT2a (IP1 agonism), Table 2) worked out at 9e-08 M; on 5-HT2B [5] (5-HT2b (IP1 agonism), Table 2), 5.5e-06 M.

For the compound `CCC(N)Cc1cc(OC)c(S(C)(=O)=O)cc1OC` (centres unmarked) [Compound 33, 1-(2,5-dimethoxy-4-(methylsulfonyl)phenyl)butan-2-amine trifluoroacetate], the EC50 on 5-HT2A [4] (5-HT2a (IP1 agonism), Table 2) is 3.4e-06 M; on 5-HT2B [5] (5-HT2b (IP1 agonism), Table 2) it was 2.5e-05 M.

As for `CCC(N)Cc1cc(OC)c(I)cc1OC` (centres unmarked) [Compound 34, 1-(4-iodo-2,5-dimethoxyphenyl)butan-2-amine], the EC50 on 5-HT2A [6] (EC50 (EC50/Gq), Gq dissociation, Gq dissociation BRET) came to 16 nM; on 5-HT2A [4] (5-HT2a (IP1 agonism), Table 2), 9.7e-06 M; at 5-HT2B [5] (5-HT2b (IP1 agonism), Table 2) it was 1.8e-05 M. Besides, on 5-HT2A [6] (EC50/Gq comparison), the “increase in Gq potency compared to Ariadne” value is listed as greater than 10 fold.

On to `CCc1cc(OC)c(CC(N)CC)cc1OC` (centres unmarked) [Compound 35, 1-(4-ethyl-2,5-dimethoxyphenyl)butan-2-amine], for which the EC50 at 5-HT2A [4] (5-HT2a (IP1 agonism), Table 2) amounted to 1.9e-06 M; on 5-HT2B [5] (5-HT2b (IP1 agonism), Table 2), 5.7e-07 M.

For the compound `CCOc1cc(CC(N)CC)c(OC)cc1C(F)(F)F` (centres unmarked) [Compound 36, 1-(5-ethoxy-2-methoxy-4-(trifluoromethyl)phenyl)butan-2-amine], the EC50 on 5-HT2A [4] (5-HT2a (IP1 agonism), Table 2) is 2.8e-07 M; on 5-HT2B [5] (5-HT2b (IP1 agonism), Table 2), 9.5e-07 M.

`CCC(N)Cc1cc(OC)c(COC)cc1OC` (centres unmarked) [Compound 37, 1-(2,5-dimethoxy-4-(methoxymethyl)phenyl)butan-2-amine]: in the test with C57BL/6J mice [1], the HTR response result is on record as “only residual HTR”. Further, at 5-HT2A [6] (Gq dissociation), the “less potent at 5-HT2A compared to Ariadne” value is recorded as “approximately 2 fold”. Also, the Emax at 5-HT2A [6] (Gq dissociation BRET, normalized to 5-HT, read-out: Emax (Emax/Gq) relative to 5-HT) was 78%; at 5-HT2B [7] (read-out: Emax/Gq) it was 43%; on 5-HT2C receptor, 82%. Besides, the “potency at 5-HT2B compared to Ariadne” value on 5-HT2B [7] (Gq dissociation) is listed as “twice as potent”.

For the compound `COc1cc(CC(N)C2CC2)c(OC)cc1C` (centres unmarked) [Compound 38, 1-cyclopropyl-2-(2,5-dimethoxy-4-methylphenyl)ethan-1-amine], the EC50 on 5-HT2A [4] (Table 2, read-out: 5-HT2a (IP1 agonism)) was determined as 9.7e-06 M; at 5-HT2B [5] (Table 2, read-out: 5-HT2b (IP1 agonism)), 2.1e-05 M.

`CCCC(N)Cc1cc(OC)c(C)cc1OC` (centres unmarked) [Compound 39, 1-(2,5-dimethoxy-4-methylphenyl) pentan-2-amine]: in the test with C57BL/6J mice [1], the HTR response result was “indistinguishable from vehicle”. The EC50 at 5-HT2B [5] (5-HT2b (IP1 agonism), Table 2) was 2.3e-05 M.

Compound `CCC(N)Cc1c(OC)cc(C)cc1OC` (centres unmarked) [Compound 40, 1-(2,6-dimethoxy-4-methylphenyl)butan-2-amine] showed an EC50 at 5-HT2A [4] (5-HT2a (IP1 agonism), Table 2) of 1e-05 M.

Consider `CCC(N)Cc1cc(OC)c(Cl)cc1OC` (centres unmarked) [Compound 41, 1-(4-chloro-2,5-dimethoxyphenyl)butan-2-amine], for which the EC50 at 5-HT2A [4] (5-HT2a (IP1 agonism), Table 2) worked out at 1.9e-07 M; at 5-HT2B [5] (5-HT2b (IP1 agonism), Table 2), 1.4e-05 M.

`CCCc1cc(OC)c(CC(N)CC)cc1OC` (centres unmarked) [Compound 42, 1-(2,5-dimethoxy-4-propylphenyl)butan-2-amine] returned an EC50 on 5-HT2A [4] (5-HT2a (IP1 agonism), Table 2) of 2.1e-07 M.

For the compound `CCC(N)Cc1cc(OC)c(C(C)(F)F)cc1OC` (centres unmarked) [Compound 50, 1-(4-(1,1-difluoroethyl)-2,5-dimethoxyphenyl)butan-2-amine], the figures for the EC50 at 5-HT2A [4] (setting [8]) and at 5-HT2B [5] (setting [9]) were 2.5e-08 M and 1.1e-07 M, respectively.

In the case of `CCC(N)Cc1cc(OC)c(C(F)(F)CC)cc1OC` (centres unmarked) [Compound 53, 1-(4-(1,1-difluoropropyl)-2,5-dimethoxyphenyl)butan-2-amine], the EC50 at 5-HT2A [4] (setting [8]) was 5.7e-08 M; on 5-HT2B [5] (setting [9]), 1.9e-07 M.

Regarding `CCC(N)Cc1cc(OC)c(CC(C)(F)F)cc1OC` (centres unmarked) [Compound 58, 1-(4-(2,2-difluoropropyl)-2,5-dimethoxyphenyl)butan-2-amine], the EC50 at 5-HT2A [4] (setting [8]) is 4.3e-06 M.

Turning to `COc1cc(CC(C)N)c(OC)cc1C` (centres unmarked) [DOM, 2,5 Dimethoxy-4-methylamphetamine, reference compound], the “potency in humans relative to mescaline” value in the test on humans is listed as “approximately 100 times”.
